Data published in US8258140B2 (Astrazeneca AB, priority 2009, dated 2012).

biological target: T1, Androgen Receptor (AR) in the LNCaP prostate carcinoma cell line (Homo sapiens, UniProt P10275, T878A); assay: LNCaP Androgen Receptor Down-Regulation Cell Assay (immunofluorescence end point); format: cell-based; settings: LNCaP cells, compound incubation 20-22 hours, concentration giving 50% reduction of the AR signal
T1 construct: cell based immuno-fluorescence assay using the LNCaP prostate epithelial cell line; host or cells: LNCaP clone FGC
T1 sequence (P10275 1-920 T878A): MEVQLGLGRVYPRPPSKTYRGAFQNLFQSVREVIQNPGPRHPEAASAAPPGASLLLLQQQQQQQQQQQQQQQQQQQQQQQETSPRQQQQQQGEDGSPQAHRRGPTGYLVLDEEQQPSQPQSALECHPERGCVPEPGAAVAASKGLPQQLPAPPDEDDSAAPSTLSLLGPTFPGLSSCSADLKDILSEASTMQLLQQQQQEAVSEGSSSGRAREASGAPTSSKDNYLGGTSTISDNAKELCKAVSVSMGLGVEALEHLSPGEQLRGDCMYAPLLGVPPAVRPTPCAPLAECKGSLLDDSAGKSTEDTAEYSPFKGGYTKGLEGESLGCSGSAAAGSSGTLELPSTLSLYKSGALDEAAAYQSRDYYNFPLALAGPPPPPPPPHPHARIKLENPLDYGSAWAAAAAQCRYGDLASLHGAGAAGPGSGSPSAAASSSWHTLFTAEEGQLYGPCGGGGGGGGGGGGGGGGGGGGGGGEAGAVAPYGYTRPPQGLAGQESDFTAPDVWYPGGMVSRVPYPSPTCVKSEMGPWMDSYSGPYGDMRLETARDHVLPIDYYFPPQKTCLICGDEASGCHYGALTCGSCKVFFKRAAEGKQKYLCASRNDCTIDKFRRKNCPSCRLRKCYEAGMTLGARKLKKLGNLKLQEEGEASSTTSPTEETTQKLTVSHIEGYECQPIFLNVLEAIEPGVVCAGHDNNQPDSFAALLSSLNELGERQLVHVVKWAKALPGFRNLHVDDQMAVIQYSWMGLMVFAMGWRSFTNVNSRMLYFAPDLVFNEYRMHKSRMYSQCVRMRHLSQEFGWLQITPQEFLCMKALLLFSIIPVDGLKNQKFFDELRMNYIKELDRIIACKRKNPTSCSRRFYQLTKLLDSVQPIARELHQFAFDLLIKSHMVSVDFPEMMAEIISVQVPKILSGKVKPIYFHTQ
Experimental: The ability of compounds to reduce Androgen Receptor (AR) numbers was assessed in a cell based immuno-fluorescence assay using the LNCaP prostate epithelial cell line.
This immunofluorescence end point assay measures the ability of a test compound to down-regulate and reduce measured levels of the AR in the LNCaP prostate carcinoma cell line (LNCaP clone FGC (CRL-1740) obtained from the American Type Culture Collection (ATCC)).
LNCaP cells were cultured in Growth Medium (phenol red free Roswell Park Memorial Institute (RPMI) 1640 (Invitrogen Code no. 11835-063) containing 2 mM L-Glutamine (Invitrogen Code no. 25030-024) and 1% (v/v) Penicillin/Streptomycin (10000 units/ml Penicillin and 10000 μg/ml of Streptomycin utilising penicillin G (sodium salt) and streptomycin sulphate: prepared in normal saline, Invitrogen Code no. 15140122) and 10% (v/v) foetal bovine serum (FBS)) in a 5% CO2 air incubator at 37° C. Cells for assay were harvested from T175 stock flasks by washing once in PBS (phosphate buffered saline, pH 7.4) (Invitrogen Code no. 14190-094) and harvested using 5 mls of 1× Trypsin/ethylaminediaminetetraacetic acid (EDTA) (10× Trypsin-EDTA, 5.0 g/L Trypsin, 2.0 g/L of EDTA.4Na and 8.5 g/L of NaCl, without Phenol Red, Invitrogen Code no. 15400-054) diluted in PBS solution. A 5 ml volume of Growth Medium was added to each flask (as above except that 5% (v/v) charcoal stripped FBS (HyClone Code no. SH30068.03) was included instead of 10% (v/v) FBS). Cells were syringed at least twice using a sterile 18 G×1.5″ (1.2×40 mm) broad gauge needle and cell density was measured using a haemocytometer. Cells were further diluted in Growth Medium plus 5% (v/v) charcoal stripped FBS and seeded at a density of 6.5×10^3 cells per well (in 90 ul) into transparent, black, tissue culture treated 96 well plates (Packard, No. 6005182).
Test data reported herein was generated using two different compounds preparation and dosing methods. In method (1) a 10 mM compound stock solution in 100% (v/v) DMSO was serially diluted in 4-fold steps in 100% (v/v) DMSO using a Thermo Scientific Matrix SerialMate. The diluted compounds were then further diluted 1 in 30 in assay media using a Thermo Scientific Matrix PlateMate and a 10 μl aliquot of this dilution was dosed to cells manually using a multi-channel pipette. In method (2) starting with a 10 mM compound stock solution, the Labcyte Echo 550 was used to generate a compound concentration response set diluted in 30 μl of assay media. The Echo 550 is a liquid handler that uses acoustic technology to perform direct microplate-to-microplate transfers of DMSO compound solutions. The system can be programmed to transfer volumes as low as 2.5 nL in multiple increments between microplates and in so doing generates a serial dilution of compound which is then back-filled to normalise the DMSO concentration across the dilution range. A 10 μl volume of diluted compound is then dosed to cells using a Thermo Scientific Matrix PlateMate.
Plates were incubated overnight at 37° C., 5% CO2. Wells were then dosed with compound prepared by one of the 2 methods above and further incubated for 20-22 hours at 37° C., 5% CO2. Plates were fixed by the addition of 20 μl of 10% (v/v) formaldehyde solution (in PBS) to each well (final formaldehyde conc.=1.67% (v/v)) and left at room temperature for 10 mins. This fixative solution was removed and cells were washed with 250 μl of PBS/0.05% (v/v) Tween 20 (PBST) using an automated plate washer. This process was then repeated twice more.
Immunostaining was performed at room temperature. Cells were permeabilised by the addition of 35 μl of PBS containing 0.5% Tween 20 and incubated for 1 hour at room temperature. Permeabilisation solution was removed and cells were washed with 250 μl of PBST using an automated plate washer. This process was then repeated twice more. […]

| Molecule | IC50 |
| --- | --- |
| Fc1cccc(CN2CCN(C3=Nn4c(nnc4C(F)(F)F)CC3)CC2)c1 [Example 6, 6-[4-(3-fluorobenzyl)piperazin-1-yl]-3-(trifluoromethyl)-7,8-dihydro[1,2,4]triazolo[4,3-b]pyridazine] | 4 µM |
| 6-(4-{4-[2-(1H-imidazol-1-yl)ethoxy]phenyl}piperidin-1-yl)-3-(trifluoromethyl)-7,8-dihydro[1,2,4]triazolo[4,3-b]pyridazine [Example 41] | 2.9 µM |
| CCCCC(=O)N1CCN(CCCOc2ccc(C3CCN(C4=Nn5c(nnc5C(F)(F)F)CC4)CC3)cc2)CC1 [Example 27, 6-(4-{4-[3-(4-pentanoylpiperazin-1-yl)propoxy]phenyl}piperidin-1-yl)-3-(trifluoromethyl)-7,8-dihydro[1,2,4]triazolo[4,3-b]pyridazine] | 0.67 µM |
| Fc1ccc(CN2CCN(C3=Nn4c(nnc4C(F)(F)F)CC3)CC2)cc1 [Example 1, 6-[4-(4-fluorobenzyl)piperazin-1-yl]-3-(trifluoromethyl)-7,8-dihydro[1,2,4]triazolo[4,3-b]pyridazine] | 6 µM |
| CN(CCO)C(=O)COc1ccc(C2CCN(C3=Nn4c(nnc4C(F)(F)F)CC3)CC2)cc1 [Example 21, N-(2-hydroxyethyl)-N-methyl-2-(4-{1-[3-(trifluoromethyl)-7,8-dihydro[1,2,4]triazolo[4,3-b]pyridazin-6-yl]piperidin-4-yl}phenoxy)acetamide] | 26 µM |
| Fc1ccc(C(F)F)c(CN2CCN(C3=Nn4c(nnc4C(F)(F)F)CC3)CC2)c1 [Example 10, 6-[4-[2-(difluoromethyl)-5-fluorobenzyl]piperazin-1-yl]-3-(trifluoromethyl)-7,8-dihydro[1,2,4]triazolo[4,3-b]pyridazine] | 1 µM |
| Fc1ccc2[nH]cc(CN3CCN(C4=Nn5c(nnc5C(F)(F)F)CC4)CC3)c2c1 [Example 12, 6-{4-[(5-fluoro-1H-indol-3-yl)methyl]piperazin-1-yl}-3-(trifluoromethyl)-7,8-dihydro[1,2,4]triazolo[4,3-b]pyridazine] | 3.4 µM |
| FC(F)(F)c1nnc2n1N=C(N1CCN(Cc3cccc(Cl)c3)CC1)CC2 [Example 7, 6-[4-(3-chlorobenzyl)piperazin-1-yl]-3-(trifluoromethyl)-7,8-dihydro[1,2,4]triazolo[4,3-b]pyridazine] | 2.9 µM |
| Cn1nccc1CCOc1ccc(N2CCN(C3=Nn4c(nnc4C(F)(F)F)CC3)CC2)cc1 [Example 16, 6-[4-[4-[2-(1-methyl-1H-pyrazol-5-yl)ethoxy]phenyl]piperazin-1-yl]-3-(trifluoromethyl)-7,8-dihydro[1,2,4]triazolo[4,3-b]pyridazine] | 3.2 µM |
| CCc1nccn1CCOc1ccc(C2CCN(C3=Nn4c(nnc4C(F)(F)F)CC3)CC2)cc1 [Example 42, 6-(4-{4-[2-(2-ethyl-1H-imidazol-1-yl)ethoxy]phenyl}piperidin-1-yl)-3-(trifluormethyl)-7,8-dihydro[1,2,4]triazolo[4,3-b]pyridazine] | 0.66 µM |
| CCCCN(C)C(=O)COc1ccc(C2CCN(C3=Nn4c(nnc4C(F)(F)F)CC3)CC2)cc1 [Example 22, N-butyl-N-methyl-2-(4-{1-[3-(trifluoromethyl)-7,8-dihydro[1,2,4]triazolo[4,3-b]pyridazin-6-yl]piperidin-4-yl}phenoxy)acetamide] | 0.46 µM |
| CC(=O)N1CCN(CCOc2ccc(C3(O)CCN(C4=Nn5c(nnc5C(F)(F)F)CC4)CC3)cc2)CC1 [Example 45, 4-{4-[2-(4-acetylpiperazin-1-yl)ethoxy]phenyl}-1-[3-(trifluoromethyl)-7,8-dihydro[1,2,4]triazolo[4,3-b]pyridazin-6-yl]piperidin-4-ol] | 12 µM |
| CC(=O)N1CCN(CCOc2ccc(C3CCN(C4=Nn5c(nnc5C(F)(F)F)CC4)CC3)cc2)C[C@@H]1C [Example 52, 6-[4-(4-{2-[(3S)-4-acetyl-3-methylpiperazin-1-yl]ethoxy}phenyl)piperidin-1-yl]-3-(trifluoromethyl)-7,8-dihydro[1,2,4]triazolo[4,3-b]pyridazine] | 0.32 µM |
| Cn1nccc1CCOc1ccc(C2(O)CCN(C3=Nn4c(nnc4C(F)(F)F)CC3)CC2)cc1 [Example 36, 4-{4-[2-(1-methyl-1H-pyrazol-5-yl)ethoxy]phenyl}-1-[3-(trifluoromethyl)-7,8-dihydro[1,2,4]triazolo[4,3-b]pyridazin-6-yl]piperidin-4-ol] | 4.5 µM |
| FC(F)(F)c1nnc2n1N=C(N1CC=C(c3c[nH]c4ccccc34)CC1)CC2 [Example 2, 6-[4-(1H-indol-3-yl)-5,6-dihydropyridin-1(2H)-yl]-3-(trifluoromethyl)-7,8-dihydro-[1,2,4]triazolo[4,3-b]pyridazine] | 3.2 µM |
| CC(=O)N1CCN([C@H](C)COc2ccc(C3CCN(C4=Nn5c(nnc5C(F)(F)F)CC4)CC3)cc2)CC1 (single isomer, unassigned) [Example 53] | 0.18 µM |
| FC(F)(F)c1nnc2n1N=C(N1CCC(c3c[nH]c4ccccc34)CC1)CC2 [Example 3, 6-[4-(1H-indol-3-yl)piperidin-1-yl]-3-(trifluoromethyl)-7,8-dihydro[1,2,4]triazolo[4,3-b]pyridazine] | 1.2 µM |
| CCCCC(=O)N1CCN(CCOc2ccc(N3CCN(C4=Nn5c(nnc5C(F)(F)F)CC4)CC3)cc2)CC1 [Example 33, 6-(4-{4-[2-(4-pentanoylpiperazin-1-yl)ethoxy]phenyl}piperazin-1-yl)-3-(trifluoromethyl)-7,8-dihydro[1,2,4]triazolo[4,3-b]pyridazine] | 7.8 µM |
| COCCN(C)C(=O)COc1ccc(C2CCN(C3=Nn4c(nnc4C(F)(F)F)CC3)CC2)cc1 [Example 19, N-(2-methoxyethyl)-N-methyl-2-(4-{1-[3-(trifluoromethyl)-7,8-dihydro[1,2,4]triazolo[4,3-b]pyridazin-6-yl]piperidin-4-yl}phenoxy)acetamide] | 2.9 µM |
